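Each compound was tested at five concentrations against cells in 96-well plates for 48 hours. Abbreviation: GI50, concentration required for 50% inhibition of growth.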 The source made the active and inactive calls. Rule as the data show it: active = GI50 up to about 1.1 µM and inactive = higher.
How the values were obtained:
Assay in all cases: DTP human tumour cell line panel, 48 h
TK-10 = tested on: TK-10
U-251 = tested on: U-251
NCI-H522 = tested on: NCI-H522
SK-MEL-5 = tested on: SK-MEL-5
SW-620 = tested on: SW-620
NCI/ADR-RES = tested on: NCI/ADR-RES
RPMI-8226 = tested on: RPMI-8226
SR = tested on: SR
786-0 = tested on: 786-0
A498 = tested on: A498
A549 = tested on: A549
HOP-92 = tested on: HOP-92
CAKI-1 = tested on: CAKI-1
NCI-H23 = tested on: NCI-H23
UO-31 = tested on: UO-31
SF-268 = tested on: SF-268
UACC-62 = tested on: UACC-62
HCC 2998 = tested on: HCC 2998
T47D = tested on: T47D
IGROV-1 = tested on: IGROV-1
Hs-578T = tested on: Hs-578T
Malme-3M = tested on: Malme-3M
DU-145 = tested on: DU-145
HCT-15 = tested on: HCT-15
NCI-H226 = tested on: NCI-H226
MDA-MB-231 = tested on: MDA-MB-231
MCF7 = tested on: MCF7
HT-29 = tested on: HT-29
SF-295 = tested on: SF-295
HL-60 = tested on: HL-60
SK-MEL-28 = tested on: SK-MEL-28
COLO 205 = tested on: COLO 205
MDA-MB-435 = tested on: MDA-MB-435
SK-OV-3 = tested on: SK-OV-3
OVCAR-5 = tested on: OVCAR-5
KM12 = tested on: KM12
M14 = tested on: M14
OVCAR-4 = tested on: OVCAR-4
UACC-257 = tested on: UACC-257
SN12C = tested on: SN12C
HCT-116 = tested on: HCT-116
OVCAR-8 = tested on: OVCAR-8
RXF 393 = tested on: RXF 393
LOX IMVI = tested on: LOX IMVI
SK-MEL-2 = tested on: SK-MEL-2
MOLT-4 = tested on: MOLT-4
EKVX = tested on: EKVX
HOP-62 = tested on: HOP-62
BT-549 = tested on: BT-549
ACHN = tested on: ACHN
PC-3 = tested on: PC-3
K562 = tested on: K562
SNB-75 = tested on: SNB-75
SF-539 = tested on: SF-539
CCRF-CEM = tested on: CCRF-CEM
SNB-19 = tested on: SNB-19
OVCAR-3 = tested on: OVCAR-3
NCI-H460 = tested on: NCI-H460
MDA-N = tested on: MDA-N

For CC1(C)S[C@H](CN)N[C@H]1C(=O)OC(c1ccccc1)c1ccccc1, the GI50 (TK-10) was 61.7 µM (inactive), the GI50 (U-251) was 33 µM (inactive) and the GI50 (NCI-H522) was 31.9 µM (inactive). The GI50 (SK-MEL-5) was 17.2 µM (inactive), the GI50 (SW-620) was 43.6 µM (inactive) and the GI50 (NCI/ADR-RES) was > 100 µM (inactive). For the same compound, the GI50 (RPMI-8226) was 21.6 µM (inactive), the GI50 (SR) was 27.9 µM (inactive) and the GI50 (786-0) was 48.5 µM (inactive). The GI50 (A498) was 20 µM (inactive), the GI50 (A549) was 42.2 µM (inactive) and the GI50 (HOP-92) was 16.7 µM (inactive). The GI50 (CAKI-1) was 34.4 µM (inactive), the GI50 (NCI-H23) was 48.3 µM (inactive) and the GI50 (UO-31) was 22.3 µM (inactive). The GI50 (SF-268) was 88.1 µM (inactive), the GI50 (UACC-62) was 22.9 µM (inactive) and the GI50 (HCC 2998) was 18.6 µM (inactive). The GI50 (T47D) was 27.9 µM (inactive), the GI50 (IGROV-1) was 37.4 µM (inactive) and the GI50 (Hs-578T) was 83.2 µM (inactive). The GI50 (Malme-3M) was 31.4 µM (inactive), the GI50 (DU-145) was > 100 µM (inactive) and the GI50 (HCT-15) was 36.1 µM. For the same compound, the GI50 (NCI-H226) was > 100 µM (inactive), the GI50 (MDA-MB-231) was 35.2 µM (inactive) and the GI50 (MCF7) was 61.9 µM (inactive). For the same compound, the GI50 (HT-29) was 33.7 µM (inactive), the GI50 (SF-295) was 41.7 µM (inactive) and the GI50 (HL-60) was 16.7 µM (inactive). For the same compound, the GI50 (SK-MEL-28) was 56.5 µM (inactive), the GI50 (COLO 205) was 17.6 µM (inactive) and the GI50 (MDA-MB-435) was 30.3 µM (inactive). For the same compound, the GI50 (SK-OV-3) was 78.3 µM (inactive), the GI50 (OVCAR-5) was 60.8 µM (inactive) and the GI50 (KM12) was 38.5 µM (inactive). For the same compound, the GI50 (M14) was 34.2 µM (inactive), the GI50 (OVCAR-4) was 27.3 µM (inactive) and the GI50 (UACC-257) was 17.4 µM (inactive). For the same compound, the GI50 (SN12C) was 32.4 µM (inactive), the GI50 (HCT-116) was 33.8 µM (inactive) and the GI50 (OVCAR-8) was 57.9 µM (inactive). The GI50 (RXF 393) was 63.5 µM (inactive), the GI50 (LOX IMVI) was 17.4 µM (inactive) and the GI50 (SK-MEL-2) was 27.7 µM (inactive). For the same compound, the GI50 (MOLT-4) was 24.3 µM (inactive), the GI50 (EKVX) was 47.2 µM (inactive) and the GI50 (HOP-62) was 49.9 µM (inactive). The GI50 (BT-549) was 24.8 µM (inactive), the GI50 (ACHN) was 84.3 µM (inactive) and the GI50 (PC-3) was 25.5 µM (inactive). For the same compound, the GI50 (K562) was 22.9 µM (inactive) and the GI50 (SNB-75) was 84.3 µM (inactive).

In the case of CCSc1nc(N2CCOCC2)c2cn[nH]c2n1, the GI50 (TK-10) is reported as 47.8 µM (inactive), the GI50 (U-251) is reported as > 100 µM (inactive) and the GI50 (NCI-H522) is reported as 35 µM (inactive). For the same compound, the GI50 (SK-MEL-5) was 50.6 µM (inactive), the GI50 (SW-620) was > 100 µM (inactive) and the GI50 (NCI/ADR-RES) was > 100 µM (inactive). For the same compound, the GI50 (RPMI-8226) was 37.5 µM (inactive), the GI50 (SR) was 56.1 µM (inactive) and the GI50 (SF-539) was > 100 µM (inactive). For the same compound, the GI50 (786-0) was > 100 µM (inactive), the GI50 (A498) was 4.6 µM (inactive) and the GI50 (A549) was 76.9 µM (inactive). The GI50 (CCRF-CEM) was 60.5 µM (inactive), the GI50 (HOP-92) was 48 µM (inactive) and the GI50 (CAKI-1) was 28.2 µM (inactive). For the same compound, the GI50 (NCI-H23) was 48.1 µM (inactive), the GI50 (UO-31) was 21.5 µM (inactive) and the GI50 (SF-268) was > 100 µM (inactive). For the same compound, the GI50 (UACC-62) was 20.7 µM (inactive), the GI50 (HCC 2998) was > 100 µM (inactive) and the GI50 (T47D) was 9.73 µM (inactive). For the same compound, the GI50 (SNB-19) was > 100 µM (inactive), the GI50 (IGROV-1) was 9.64 µM (inactive) and the GI50 (Hs-578T) was 33.9 µM (inactive). The GI50 (Malme-3M) was > 100 µM (inactive), the GI50 (DU-145) was > 100 µM (inactive) and the GI50 (HCT-15) was 65.5 µM. The GI50 (NCI-H226) was > 100 µM (inactive), the GI50 (MDA-MB-231) was > 100 µM (inactive) and the GI50 (MCF7) was 44.9 µM (inactive). The GI50 (HT-29) was > 100 µM (inactive), the GI50 (SF-295) was 54.8 µM (inactive) and the GI50 (HL-60) was > 100 µM (inactive). For the same compound, the GI50 (SK-MEL-28) was 88.5 µM (inactive), the GI50 (COLO 205) was 39.7 µM (inactive) and the GI50 (MDA-MB-435) was 41.8 µM (inactive). The GI50 (SK-OV-3) was 86.3 µM (inactive), the GI50 (OVCAR-5) was 77.4 µM (inactive) and the GI50 (KM12) was 58.9 µM (inactive). The GI50 (OVCAR-3) was 52.1 µM (inactive), the GI50 (NCI-H460) was 49.9 µM (inactive) and the GI50 (M14) was > 100 µM (inactive). The GI50 (OVCAR-4) was 62.5 µM (inactive), the GI50 (UACC-257) was > 100 µM (inactive) and the GI50 (SN12C) was 52.5 µM (inactive). For the same compound, the GI50 (HCT-116) was > 100 µM (inactive), the GI50 (OVCAR-8) was > 100 µM (inactive) and the GI50 (RXF 393) was > 100 µM (inactive). For the same compound, the GI50 (LOX IMVI) was 32.4 µM (inactive), the GI50 (SK-MEL-2) was 41.5 µM (inactive) and the GI50 (MOLT-4) was > 100 µM (inactive). For the same compound, the GI50 (EKVX) was > 100 µM (inactive), the GI50 (HOP-62) was > 100 µM (inactive) and the GI50 (BT-549) was 82.2 µM (inactive). The GI50 (ACHN) was 31.7 µM (inactive), the GI50 (PC-3) was 22.1 µM (inactive) and the GI50 (K562) was > 100 µM (inactive). For the same compound, the GI50 (SNB-75) was 71.1 µM (inactive).

With COc1ccc2nc3ccc(OC)cc3c(SCC3CO3)c2c1 (configuration not stated) the GI50 (TK-10) was 12.8 µM (inactive), the GI50 (U-251) was 12.7 µM (inactive) and the GI50 (NCI-H522) was 13 µM (inactive). The GI50 (SK-MEL-5) was 15.8 µM (inactive), the GI50 (SW-620) was 11.1 µM (inactive) and the GI50 (NCI/ADR-RES) was 17.1 µM (inactive). For the same compound, the GI50 (RPMI-8226) was 22.7 µM (inactive), the GI50 (SR) was 6.89 µM (inactive) and the GI50 (SF-539) was 10.8 µM (inactive). The GI50 (786-0) was 11.1 µM (inactive), the GI50 (A498) was 25.8 µM (inactive) and the GI50 (A549) was 24.2 µM (inactive). The GI50 (CCRF-CEM) was 6.85 µM (inactive), the GI50 (CAKI-1) was 5.79 µM (inactive) and the GI50 (MDA-N) was 15.8 µM (inactive). For the same compound, the GI50 (NCI-H23) was 17.2 µM (inactive), the GI50 (UO-31) was 12.3 µM (inactive) and the GI50 (SF-268) was 13.2 µM (inactive). For the same compound, the GI50 (HCC 2998) was 15.6 µM (inactive), the GI50 (T47D) was 16.8 µM (inactive) and the GI50 (SNB-19) was 24.6 µM (inactive). The GI50 (Malme-3M) was 14.1 µM (inactive), the GI50 (HCT-15) was 15.6 µM and the GI50 (NCI-H226) was 34.4 µM (inactive). The GI50 (MDA-MB-231) was 15 µM (inactive), the GI50 (MCF7) was 11.2 µM (inactive) and the GI50 (SF-295) was 60.7 µM (inactive). For the same compound, the GI50 (SK-MEL-28) was 17.7 µM (inactive), the GI50 (COLO 205) was 19 µM (inactive) and the GI50 (MDA-MB-435) was 18.2 µM (inactive). For the same compound, the GI50 (SK-OV-3) was 71.3 µM (inactive), the GI50 (OVCAR-5) was 24.9 µM (inactive) and the GI50 (KM12) was 16.1 µM (inactive). The GI50 (OVCAR-3) was 14.9 µM (inactive), the GI50 (NCI-H460) was 12 µM (inactive) and the GI50 (M14) was 14.4 µM (inactive). The GI50 (OVCAR-4) was 19.5 µM (inactive), the GI50 (UACC-257) was 15.5 µM (inactive) and the GI50 (SN12C) was 13.8 µM (inactive). The GI50 (HCT-116) was 10.5 µM (inactive), the GI50 (OVCAR-8) was 11 µM (inactive) and the GI50 (RXF 393) was 15.8 µM (inactive). For the same compound, the GI50 (LOX IMVI) was 15.4 µM (inactive), the GI50 (SK-MEL-2) was 14.2 µM (inactive) and the GI50 (EKVX) was 13.3 µM (inactive). For the same compound, the GI50 (HOP-62) was 44.6 µM (inactive), the GI50 (BT-549) was 15.8 µM (inactive) and the GI50 (ACHN) was 8.71 µM (inactive). For the same compound, the GI50 (PC-3) was 14.9 µM (inactive), the GI50 (K562) was 8.59 µM (inactive) and the GI50 (SNB-75) was 37.2 µM (inactive).

Reference: ChEMBL document CHEMBL1201862, “PubChem BioAssay data set” (2004)
